# Data: patent US20100056515A1, “BENZIMIDAZOLE COMPOUNDS” (priority 2006, published 2010)
# Experiments:
# [1] = target: T1, human CRF receptor (Homo sapiens, UniProt P34998); experiment: Measurement of CRF Binding Inhibitory Rate (receptor binding experiment with 125I-CRF); conditions: human CRF receptor expressing CHO cellular membrane fraction; 50 pM ovine 125I-CRF; 0.05 nM to 10 μM of compound; room temperature 1.5 hr; read-out: IC50 values (CRF binding inhibition)
# T1 construct: expressed in transfected cells; host or cells: CHO cells (membrane fraction)
# T1 sequence (P34998 24-415): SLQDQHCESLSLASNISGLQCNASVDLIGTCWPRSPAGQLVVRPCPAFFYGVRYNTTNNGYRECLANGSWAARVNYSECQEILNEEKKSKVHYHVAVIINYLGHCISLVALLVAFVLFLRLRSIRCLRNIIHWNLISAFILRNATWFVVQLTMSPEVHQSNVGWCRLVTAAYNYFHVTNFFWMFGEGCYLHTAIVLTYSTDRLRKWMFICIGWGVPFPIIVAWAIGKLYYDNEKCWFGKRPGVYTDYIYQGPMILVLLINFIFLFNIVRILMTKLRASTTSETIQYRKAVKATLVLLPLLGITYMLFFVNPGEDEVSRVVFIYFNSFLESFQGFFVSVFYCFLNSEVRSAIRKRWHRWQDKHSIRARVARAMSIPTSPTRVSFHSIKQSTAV
# Description: Measurement of CRF Binding Inhibitory Rate
# A receptor binding experiment was carried out using a human CRF receptor expressing CHO cellular membrane fraction and ovine CRF, [^125I]-tyr^0(^125I-CRF). 1000 nM of a test compound was incubated with 1 μg of human CRF receptor expressing CHO cellular membrane fraction and 50 pM of ^125I-CRF in a binding assay buffer (50 mM Tris-HCl, 5 mM EDTA, 10 mM MgCl2, 0.05% CHAPS, 0.1% BSA, 0.5 mM PMSF, 0.1 μg/mL pepstatin, 20 μg/mL leupeptin, pH 7.5). In addition, for measuring nonspecific binding (NSB), 0.1 μM unlabelled human Urocortin was incubated with 5 μg of human CRF receptor expressing CHO cellular membrane fraction and 50 pM of ^125I-CRF in a binding assay buffer. After a binding reaction was carried out at room temperature for 1.5 hr, the membrane was entrapped on a glass filter (UniFilter plate GF-C/Perkin Elmer) by suction filtration using a cell harvester (Perkin Elmer), and washed with ice-cooled 50 mM Tris-HCl (pH 7.5). After drying the glass filter, a liquid scintillation cocktail (Microscinti 0, Perkin Elmer) was added, and the radioactivity of ^125I-CRF remaining on a glass filter was measured using Topcount (Perkin Elmer).
# (TB-SB)/(TB-NSB)×100 (SB: radioactivity when a compound is added, TB: maximum binding radioactivity, NSB: nonspecific binding radioactivity) were calculated to obtain binding inhibitory rates under the range of the presence from 0.05 nM to 10 μM of each compounds. The IC50 values were calculated by using GraphPad Prism software.
Structure (SMILES),IC50 [1],melting point
"CCC(CC)c1ccc(Cl)c2nc(Oc3c(C)cc(S(C)(=O)=O)cc3Cl)n(C)c12 [Example 38, 4-Chloro-2-[2-chloro-6-methyl-4-(methylsulfonyl)phenoxy]-7-(1-ethylpropyl)-1-methyl-1H-benzimidazole]",< 1000 nM,199 to 200 °C
"CCC(CC)c1ccc(Cl)c2nc(Oc3c(C)cc(S(N)(=O)=O)cc3Cl)n(C)c12 [Example 40, 3-Chloro-4-{[4-chloro-7-(1-ethylpropyl)-1-methyl-1H-benzimidazol-2-yl]oxy}-5-methylbenzenesulfonamide]",< 1000 nM,293 to 294 °C
"CCC(CC)c1ccc(Cl)c2nc(Oc3c(Cl)cc(OC(F)(F)F)cc3SC)n(C)c12 [Example 42, 4-Chloro-2-[2-chloro-6-(methylthio)-4-(trifluoromethoxy)phenoxy]-7-(1-ethylpropyl)-1-methyl-1H-benzimidazole]",< 1000 nM,138 to 139 °C
"CCC(CC)c1ccc(Cl)c2nc(Oc3c(Cl)cc(OC(F)(F)F)cc3[S+](C)[O-])n(C)c12 (centres unmarked) [Example 43, 4-Chloro-2-[2-chloro-6-(methylsulfinyl)-4-(trifluoromethoxy)phenoxy]-7-(1-ethylpropyl)-1-methyl-1H-benzimidazole]",< 1000 nM,150 to 151 °C
"CCC(CC)c1ccc(Cl)c2nc(Oc3c(Cl)cc(OC(F)(F)F)cc3S(C)(=O)=O)n(C)c12 [Example 44, 4-Chloro-2-[2-chloro-6-(methylsulfonyl)-4-(trifluoromethoxy)phenoxy]-7-(1-ethylpropyl)-1-methyl-1H-benzimidazole]",< 1000 nM,164 to 165 °C
"CCC(CC)c1ccc(Cl)c2nc(Nc3c(C)cc(SC)cc3OC)n(C)c12 [Example 45, 4-Chloro-7-(1-ethylpropyl)-N-[2-methoxy-6-methyl-4-(methylthio)phenyl]-1-methyl-1H-benzimidazol-2-amine]",< 1000 nM,223 to 225 °C
"CCC(CC)c1ccc(Cl)c2nc(Nc3c(C)cc(Cl)cc3SC)n(C)c12 [Example 50, 4-Chloro-N-[4-chloro-2-methyl-6-(methylthio)phenyl]-7-(1-ethylpropyl)-1-methyl-1H-benzimidazol-2-amine]",< 1000 nM,167 to 169 °C
"CCC(CC)c1ccc(Cl)c2nc(Nc3c(C)cc(Cl)cc3[S+](C)[O-])n(C)c12 (centres unmarked) [Example 51, 4-Chloro-N-[4-chloro-2-methyl-6-(methylsulfinyl)phenyl]-7-(1-ethylpropyl)-1-methyl-1H-benzimidazol-2-amine]",< 1000 nM,212 to 213 °C
"CCC(CC)c1ccc(Cl)c2nc(Oc3c(OC)cc(C)nc3N(C)C)n(C)c12 [Example 52, 3-{[4-Chloro-7-(1-ethylpropyl)-1-methyl-1H-benzimidazol-2-yl]oxy}-4-methoxy-N,N,6-trimethylpyridin-2-amine]",< 1000 nM,202 to 203 °C
"CCC(CC)c1ccc(Cl)c2nc(Oc3c(Cl)cc(Cl)c4c3CN(C)C4)n(C)c12 [Example 55, 4-Chloro-2-[(5,7-dichloro-2-methyl-2,3-dihydro-1H-isoindol-4-yl)oxy]-7-(1-ethylpropyl)-1-methyl-1H-benzimidazole]",< 1000 nM,148 to 149 °C
"CCC(CC)c1ccc(Cl)c2nc(Oc3c(OC)cc(C(F)(F)F)nc3C)n(C)c12 [Example 56, 4-Chloro-7-(1-ethylpropyl)-2-{[4-methoxy-2-methyl-6-(trifluoromethyl)pyridin-3-yl]oxy}-1-methyl-1H-benzimidazole]",< 1000 nM,178 to 179 °C
"CCC(CC)c1ccc(Br)c2nc(Oc3c(C)cc(Cl)cc3Cl)n(C)c12 [Example 70, 4-Bromo-2-(2,4-dichloro-6-methylphenoxy)-7-(1-ethylpropyl)-1-methyl-1H-benzimidazole]",< 1000 nM,146 to 147 °C
"CCC(CC)c1ccc(Cl)c2nc(Oc3c(Br)cc(Br)nc3C)n(C)c12 [Example 74, 4-Chloro-2-[(4,6-dibromo-2-methylpyridin-3-yl)oxy]-7-(1-ethylpropyl)-1-methyl-1H-benzimidazole]",< 1000 nM,202 to 203 °C
"CCC(CC)c1ccc(OC)c2nc(Oc3c(Cl)cc(Cl)cc3CN(C)C)n(C)c12.Cl [Example 77, 1-(3,5-Dichloro-2-{[7-(1-ethylpropyl)-4-methoxy-1-methyl-1H-benzimidazol-2-yl]oxy}phenyl)-N,N-dimethylmethanamine]",< 1000 nM,169 to 170 °C
"CCC(CC)c1ccc(Cl)c2nc(Oc3c(Cl)cc(Cl)cc3CN3CCCC3)n(C)c12 [Example 78, 4-Chloro-2-[2,4-dichloro-6-(pyrrolidin-1-ylmethyl)phenoxy]-7-(1-ethylpropyl)-1-methyl-1H-benzimidazole]",< 1000 nM,122 to 123 °C
"CCC(CC)c1ccc(OC)c2nc(Oc3c(Cl)cc(Cl)cc3CN3CCCC3)n(C)c12.Cl [Example 79, 2-[2,4-Dichloro-6-(pyrrolidin-1-ylmethyl)phenoxy]-7-(1-ethylpropyl)-4-methoxy-1-methyl-1H-benzimidazole]",< 1000 nM,183 to 185 °C
"CCC(CC)c1ccc(OC)c2nc(Oc3c(Cl)cc(Cl)cc3CN3CCCC3C)n(C)c12.Cl (centres unmarked) [Example 80, 2-{2,4-Dichloro-6-[(2-methylpyrrolidin-1-yl)methyl]phenoxy}-7-(1-ethylpropyl)-4-methoxy-1-methyl-1H-benzimidazole]",< 1000 nM,171 to 173 °C
"CCC(CC)c1ccc(OC)c2nc(Oc3c(F)cc(Br)cc3Cl)n(C)c12 [Example 81, 2-(4-Bromo-2-chloro-6-fluorophenoxy)-7-(1-ethylpropyl)-4-methoxy-1-methyl-1H-benzimidazole]",< 1000 nM,129 to 131 °C
"CCC(CC)c1ccc(Cl)c2nc(Oc3ccc(N(C)C)cc3Cl)n(C)c12 [Example 83, 3-Chloro-4-{[4-chloro-7-(1-ethylpropyl)-1-methyl-1H-benzimidazol-2-yl]oxy}-N,N-dimethylaniline]",< 1000 nM,148 to 149 °C
"CCC(CC)c1ccc(Cl)c2nc(Oc3c(Cl)cc(Cl)cc3CN(C)C)n(C)c12 [Example 86, 1-(3,5-Dichloro-2-{[4-chloro-7-(1-ethylpropyl)-1-methyl-1H-1-benzimidazol-2-yl]oxy}phenyl)-N,N-dimethylmethanamine]",< 1000 nM,149 to 151 °C
"CCC(CC)c1ccc(OC)c2nc(Nc3c(C)cc(Cl)cc3Cl)n(C)c12 [Example 88, N-(2,4-Dichloro-6-methylphenyl)-7-(1-ethylpropyl)-4-methoxy-1-methyl-1H-benzimidazol-2-amine]",< 1000 nM,201 to 203 °C
"CCC(CC)c1cccc2nc(Oc3c(C)cc(Cl)cc3Cl)n(C)c12 [Example 91, 2-(2,4-Dichloro-6-methylphenoxy)-7-(1-ethylpropyl)-1-methyl-1H-benzimidazole]",< 1000 nM,91 to 92 °C
"CCC(CO)c1ccc(Cl)c2nc(Oc3c(C)cc(Cl)cc3Cl)n(C)c12 (centres unmarked) [Example 94, 2-[4-Chloro-2-(2,4-dichloro-6-methylphenoxy)-1-methyl-1H-benzimidazol-7-yl]butan-1-ol]",< 1000 nM,208 to 209 °C
"CCC(CCO)c1ccc(Cl)c2nc(Oc3c(C)cc(Cl)cc3Cl)n(C)c12 (centres unmarked) [Example 97, 3-[4-Chloro-2-(2,4-dichloro-6-methylphenoxy)-1-methyl-1H-benzimidazol-7-yl]pentan-1-ol]",< 1000 nM,165 to 167 °C
"CCC(CC=O)c1ccc(Cl)c2nc(Oc3c(C)cc(Cl)cc3Cl)n(C)c12 (centres unmarked) [Example 98, 3-[4-Chloro-2-(2,4-dichloro-6-methylphenoxy)-1-methyl-1H-benzimidazol-7-yl]pentanal]",< 1000 nM,157 to 158 °C
